Patent publication US20250090875A9, “IMMUNOSTIMULATORY COMPOUNDS AND CONJUGATES” (Seagen Inc., priority 2021, published 2025)
Entries after “also recorded” stand apart in the source; their conditions may differ.

Columns and labels:
[1] = system: CT26 tumors; format: in vivo; conditions: targeted ADC, intraperitoneal, every 7 days, 3 doses; for mice surviving at the end of the study: 6 mice per group
Text: This example covers in vivo assessments of anti-tumor activity of ADCs with TLR7/8 agonists. An in vivo syngeneic system was used to assess the ability of the ADCs having TLR ⅞ agonists as the payload to induce immune responses and drive an anti-tumor immune response using a subcutaneous, heterotopic mouse colon carcinoma model (a CT26 system). Female Balb/c mice were implanted with 1×10^5 CT26 cells sub-cutaneously in the flank on day 0. When mean tumor size of 100 mm^3 (measured using the formula: Volume (mm^3)=0.5*Length*Width^2 where length is the longer dimension) was reached, the mice were randomized into treatment groups of 6 mice per group. Animals were then treated intraperitoneally with the indicated treatment every 7 days, for 3 doses total. Stock concentrations of the ADCs were diluted to the appropriate concentration and injected into animals in 100 μL volumes. Tumor length and width and mouse weights were measured throughout the study and tumor volume was calculated using the formula above. Animals were followed until tumor volume reached 1000 mm^3, when animals were then euthanized.

[2] = system: Renca tumors; experiment: Renca kidney carcinoma model in Balb/c mice; format: in vivo, mouse; conditions: targeted or non-targeted conjugates, N1 vs C4 linkage, different linkers, with or without PEG
Description: The difference in anti-tumor activity of the S18a and S18b conjugates was also assessed in the Renca kidney model. In this model, mice bearing Renca tumors were treated q7dx3 when tumors reached ˜100 mm^3 as indicated, and followed for mean group tumor growth (FIG. 14, top) and survival (FIG. 14, bottom) over time.
This example covers cancer treatment with EphA2 targeted TLR agonists. […] Balb/c mice were implanted with Renca tumor cells and when cells reached 100 mm^3 they were treated Q7dx3 treatments with 2.4 mg/kg of the indicated IDC, either non targeting isotype or an EphA2 targeting mAb.

[3] = system: primary human PBMCs; experiment: Cytokine induction in primary human PBMCs by small molecule TLR7/8 agonists (Luminex); format: cell-based; conditions: for potency and activity of cytokine induction (IL6, TNFα, MCP1, IP10): ranking; for potency to activate human PBMCs (IL6, IL1b, MIP1b, TNFα): compared with S18a, FIG. 29
Description: This example covers dose dependent human immune cell activation by small molecule TLR7/8 agonists. Primary human PBMCs were isolated from peripheral whole blood from human donors and were subjected to treatment with increasing concentrations of the agonists diluted in PBS. Cell culture supernatants were harvested 24 h after treatment and analyzed for induction of cytokines via multiplex ELISAs (Luminex).
Several small molecule TLR7/8 agonists were assessed for their ability to activate human immune cells in a dose dependent manner. Primary human PBMCs were isolated from peripheral whole blood from human donors and were subjected to treatment with increasing concentrations of the agonists diluted in PBS. 24 h after treatment cell culture supernatants were harvested and analyzed for induction of cytokines via multiplex ELISAs (Luminex).

[4] = biological target: T1, hTLR7 (Homo sapiens, UniProt Q9NYK1); experiment: HEK Blue hTLR7 cell assay of free TLR7/8 agonists; format: cell-based; conditions: HEK Blue hTLR7 cells, free agonist
T1 construct: expressed in transfected cells; host or cells: HEK Blue hTLR7 cells
T1 sequence (Q9NYK1 27-1049): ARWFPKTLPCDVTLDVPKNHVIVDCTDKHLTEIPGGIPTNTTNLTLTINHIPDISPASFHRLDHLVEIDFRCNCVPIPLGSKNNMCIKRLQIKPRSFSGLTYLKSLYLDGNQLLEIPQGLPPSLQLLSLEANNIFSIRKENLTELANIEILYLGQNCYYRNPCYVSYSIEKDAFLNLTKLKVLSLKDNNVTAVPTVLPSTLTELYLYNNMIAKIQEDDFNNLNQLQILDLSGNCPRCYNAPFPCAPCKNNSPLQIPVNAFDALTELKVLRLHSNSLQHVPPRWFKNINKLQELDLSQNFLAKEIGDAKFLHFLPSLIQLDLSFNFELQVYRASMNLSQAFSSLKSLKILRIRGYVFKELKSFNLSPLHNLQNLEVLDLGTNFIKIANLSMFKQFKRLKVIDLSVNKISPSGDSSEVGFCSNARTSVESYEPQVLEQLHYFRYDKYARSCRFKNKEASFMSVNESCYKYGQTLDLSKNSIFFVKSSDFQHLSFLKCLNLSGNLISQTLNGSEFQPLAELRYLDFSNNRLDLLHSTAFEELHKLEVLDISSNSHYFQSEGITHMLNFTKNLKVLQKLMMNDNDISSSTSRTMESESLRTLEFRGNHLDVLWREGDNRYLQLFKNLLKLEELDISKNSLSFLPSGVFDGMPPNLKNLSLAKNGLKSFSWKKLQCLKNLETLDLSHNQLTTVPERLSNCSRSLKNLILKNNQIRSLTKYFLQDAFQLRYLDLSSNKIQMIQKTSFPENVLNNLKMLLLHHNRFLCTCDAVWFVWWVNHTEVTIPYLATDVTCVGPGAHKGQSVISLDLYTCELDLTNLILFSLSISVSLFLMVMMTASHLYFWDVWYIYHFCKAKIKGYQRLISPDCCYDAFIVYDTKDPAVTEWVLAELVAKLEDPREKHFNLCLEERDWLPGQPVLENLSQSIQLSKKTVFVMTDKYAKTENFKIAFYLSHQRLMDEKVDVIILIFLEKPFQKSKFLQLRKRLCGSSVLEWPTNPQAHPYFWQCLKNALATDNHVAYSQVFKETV
Description: This example covers toll-like receptor 7 (TLR7) and toll-like receptor 8 (TLR8) selectivity of imidazoquinoline agonists. Assessment of TLR7 and TLR8 selectivity for the free TLR7/8 agonists was performed using HEK Blue hTLR7 and hTLR8 cells over a large dose range of compounds. […] Activities were determined based on calculated EC50 (in μM) in each cell line, and are summarized in TABLE 4 below, with columns providing targets and rows providing compounds.

CCCCc1nc2c(N)nc3cc(C(=O)OC)ccc3c2n1Cc1ccc(CNC(=O)OCc2ccc(O[C@H]3O[C@H](CO)[C@@H](O)[C@H](O)[C@@H]3O)c(NC(=O)CCNC(=O)[C@H](CCCCNC(=O)CCOCCOCCOCCOCCOCCOCCOCCOCCOCCOCCOCCOC)NC(=O)CCN3C(=O)C=CC3=O)c2)cc1 [Compound 4, methyl 4-amino-2-butyl-1-(4-(((((3-((S)-44-(3-(2,5-dioxo-2,5-dihydro-1H-pyrrol-1-yl)propanamido)-38,45-dioxo-2,5,8,11,14,17,20,23,26,29,32,35-dodecaoxa-39,46-diazanonatetracontan-49-amido)-4-(((2R,3 S,4 S, 5 S,6R)-3,4,5-trihydroxy-6-(hydroxymethyl)tetrahydro-2H-pyran-2-yl)oxy)benzyl)oxy)carbonyl)amino)methyl)benzyl)-1H-imidazo[4,5-c]quinoline-7-carboxylate]
tumor growth delay and survival [1]: some tumor growth delay and survival benefit | mice surviving at the end of the study [1]: ⅙

CCCCc1nc2c(N)nc3cc(C(=O)OC)ccc3c2n1CCCCCNC(=O)OCc1ccc(O[C@H]2O[C@H](CO)[C@@H](O)[C@H](O)[C@@H]2O)c(NC(=O)CCNC(=O)[C@H](CCCCNC(=O)CCOCCOCCOCCOCCOCCOCCOCCOCCOCCOCCOCCOC)NC(=O)CCN2C(=O)C=CC2=O)c1 [Compound 7, Methyl 4-amino-2-butyl-1-(5-((((3-((S)-44-(3-(2,5-dioxo-2,5-dihydro-1H-pyrrol-1-yl)propanamido)-38,45-dioxo-2,5,8,11,14,17,20,23,26,29,32,35-dodecaoxa-39,46-diazanonatetracontan-49-amido)-4-(((2R,3 S,4 S, 5 S,6R)-3,4,5-trihydroxy-6-(hydroxymethyl)tetrahydro-2H-pyran-2-yl)oxy)benzyl)oxy)carbonyl)amino)pentyl)-1H-imidazo[4,5-c]quinoline-7-carboxylate]
tumor growth delay and survival [1]: some tumor growth delay over the untreated group | mice surviving at the end of the study [1]: no animals ultimately survived

CCCCc1nc2c(N)nc3cc(C(=O)O)ccc3c2n1CCCCCNC(=O)OCc1ccc(O[C@H]2O[C@H](CO)[C@@H](O)[C@H](O)[C@@H]2O)c(NC(=O)CCNC(=O)[C@H](CCCCNC(=O)CCOCCOCCOCCOCCOCCOCCOCCOCCOCCOCCOCCOC)NC(=O)CCN2C(=O)C=CC2=O)c1 [Compound 8, 4-amino-2-butyl-1-(5-((((3-((S)-44-(3-(2,5-dioxo-2,5-dihydro-1H-pyrrol-1-yl)propanamido)-38,45-dioxo-2,5,8,11,14,17,20,23,26,29,32,35-dodecaoxa-39,46-diazanonatetracontan-49-amido)-4-(((2R,3 S,4 S, 5 S,6R)-3,4,5-trihydroxy-6-(hydroxymethyl)tetrahydro-2H-pyran-2-yl)oxy)benzyl)oxy)carbonyl)amino)pentyl)-1H-imidazo[4,5-c]quinoline-7-carboxylic acid]
tumor growth delay and survival [1]: greatly increased tumor growth delay and survival

CCCCc1nc2c(N)nc3cc(C(=O)O)ccc3c2n1Cc1ccc(C[N+](C)(C)Cc2ccc(O[C@H]3O[C@H](CO)[C@@H](O)[C@H](O)[C@@H]3O)c(NC(=O)CCNC(=O)[C@H](CCCCNC(=O)CCOCCOCCOCCOCCOCCOCCOCCOCCOCCOCCOCCOC)NC(=O)CCN3C(=O)C=CC3=O)c2)cc1 [Compound 9, N-(4-((4-amino-2-butyl-7-carboxy-1H-imidazo[4,5-c]quinolin-1-yl)methyl)benzyl)-1-(3-((S)-44-(3-(2,5-dioxo-2,5-dihydro-1H-pyrrol-1-yl)propanamido)-38,45-dioxo-2,5,8,11,14,17,20,23,26,29,32,35-dodecaoxa-39,46-diazanonatetracontan-49-amido)-4-(((2R,3 S,4 S, 5 S,6R)-3,4,5-trihydroxy-6-(hydroxymethyl)tetrahydro-2H-pyran-2-yl)oxy)phenyl)-N,N-dimethylmethanaminium]
tumor growth delay and survival [1]: potent tumor growth delay and a long-term overall survival benefit | anti-tumor activity (tumor volume, survival) [2]: greatest potency; also recorded: superior potency

CCCCc1nc2c(N)nc3cc(C(=O)O)ccc3c2n1Cc1ccc(C[N+](C)(C)Cc2ccc(O[C@H]3O[C@H](CO)[C@@H](O)[C@H](O)[C@@H]3O)c(NC(=O)CCNC(=O)CCN3C(=O)C=CC3=O)c2)cc1 [Compound 14, N-(4-((4-amino-2-butyl-7-carboxy-1H-imidazo[4,5-c]quinolin-1-yl)methyl)benzyl)-1-(3-(3-(3-(2,5-dioxo-2,5-dihydro-1H-pyrrol-1-yl)propanamido)propanamido)-4-(((2R,3S,4S,5S,6R)-3,4,5-trihydroxy-6-(hydroxymethyl)tetrahydro-2H-pyran-2-yl)oxy)phenyl)-N,N-dimethylmethanaminium]
anti-tumor activity (tumor volume, survival) [2]: greatest potency

CCCCc1nc2c(N)nc3cc(C(=O)O)ccc3c2n1CC(C)O (centres unmarked) [S5b]
IFNα, IL1β, MIP1β, TNFα induction, C7 carboxylic acid vs parent C7 methyl ester ([3]; free drug, FIG. 3): markedly lower potency and activity than its corresponding parent methyl ester compound

CCCCc1nc2c(N)nc3cc(C(=O)OC)ccc3c2n1Cc1ccc(CN)cc1 [S8a]
concentration eliciting cytokine responses (IFNg, IL1β, MIP1β, TNFα) ([3]; single donor, 24 h, FIG. 1): < 0.1 µM

CCCCc1nc2c(N)nc3cc(C(=O)OC)ccc3c2n1Cc1ccc(CN2CCCC2)cc1 [S65a]
potency to induce MCP1 and IP10 ([3]; free drug, FIG. 30): enhanced potency to induce MCP1 and IP10 compared to compounds S18a | potency and activity of cytokine induction (IL6, TNFα, MCP1, IP10) ([3]; free drug, FIG. 30): other two most potent compounds

CCCCc1nc2c(N)nc3cc(C(=O)OC)ccc3c2n1CCc1ccc(CN)cc1 [S76a]
EC50 [4]: 3.44 µM

CCCCc1nc2c(N)nc3cc(C(=O)OC)ccc3c2n1CCCCCN(C)C [S77a]
EC50 [4]: 2.82 µM

COCCc1nc2c(N)nc3cc(C(=O)OC)ccc3c2n1Cc1ccc(CN)cc1 [S78a]
EC50 [4]: 3.78 µM

CCCCc1nc2c(N)nc3cc(C(=O)OC)ccc3c2n1Cc1ccc(CN2CCOCC2)cc1 [S81a]
maximal level of IL6, MCP1 and IP10 ([3]; free drug, FIG. 30): same maximal level of IL6, MCP1 and IP10 as the other compounds | maximum level of IL10, IL1b or TNFα ([3]; free drug, FIG. 30): not able to reach the same maximum level | potency and activity of cytokine induction (IL6, TNFα, MCP1, IP10) ([3]; free drug, FIG. 30): greater activity than compound S82a | TLR7 vs TLR8 binding profile ([3]; inferred from the cytokine profile): TLR7 vs TLR8 skewed binding profile

CCCCc1nc2c(N)nc3cc(C(=O)O)ccc3c2[nH]1 [S82b]
potency and activity of cytokine induction (IL6, TNFα, MCP1, IP10) ([3]; free drug, FIG. 30): greater activity than compound S84a

CCCCc1nc2c(N)nc3cc(C(=O)OC)ccc3c2n1Cc1ccc(CN(CC)CC)cc1 [S83a]
potency to activate human PBMCs (IL6, IL1b, MIP1b, TNFα) ([3]; free drug): slightly enhanced potency | potency and activity of cytokine induction (IL6, TNFα, MCP1, IP10) ([3]; free drug, FIG. 30): highest maximal cytokine and potency to induce cytokine of all compounds tested

CCCCc1nc2c(N)nc3cc(C(=O)OC)ccc3c2n1Cc1ccc(CN2CCCCC2)cc1 [S85a]
potency to activate human PBMCs (IL6, IL1b, MIP1b, TNFα) ([3]; free drug): slightly decreased potency
